Assay results reported in US9365562B2, “1,3 substituted azetidine PDE10 inhibitors” (Merck Sharp & Dohme Corp., priority 2011, dated 2016).
pKi: −log10 of the molar value.

Each compound was assayed against human PDE10A2 (Homo sapiens (Human), UniProt Q9Y233) (assay: PDE10 fluorescence polarization (IMAP FP) inhibition assay). Details: apparent inhibition constant, FAM-labeled cAMP substrate 50 nM, room temperature.
Type: biochemical
Method in brief: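 Cytoplasmic lysate of AD293 cells transiently expressing human PDE10A2, enzyme preincubated 60 min at room temperature with compounds (1% DMSO), then 50 nM FAM-cAMP added for 60 min. Buffer 10 mM Tris HCl pH 7.2, 10 mM MgCl2, 1 mM DTT; IMAP binding reagent stop, FP read after ≥1 h.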

human PDE10A2, sequence (Q9Y233 267-1055): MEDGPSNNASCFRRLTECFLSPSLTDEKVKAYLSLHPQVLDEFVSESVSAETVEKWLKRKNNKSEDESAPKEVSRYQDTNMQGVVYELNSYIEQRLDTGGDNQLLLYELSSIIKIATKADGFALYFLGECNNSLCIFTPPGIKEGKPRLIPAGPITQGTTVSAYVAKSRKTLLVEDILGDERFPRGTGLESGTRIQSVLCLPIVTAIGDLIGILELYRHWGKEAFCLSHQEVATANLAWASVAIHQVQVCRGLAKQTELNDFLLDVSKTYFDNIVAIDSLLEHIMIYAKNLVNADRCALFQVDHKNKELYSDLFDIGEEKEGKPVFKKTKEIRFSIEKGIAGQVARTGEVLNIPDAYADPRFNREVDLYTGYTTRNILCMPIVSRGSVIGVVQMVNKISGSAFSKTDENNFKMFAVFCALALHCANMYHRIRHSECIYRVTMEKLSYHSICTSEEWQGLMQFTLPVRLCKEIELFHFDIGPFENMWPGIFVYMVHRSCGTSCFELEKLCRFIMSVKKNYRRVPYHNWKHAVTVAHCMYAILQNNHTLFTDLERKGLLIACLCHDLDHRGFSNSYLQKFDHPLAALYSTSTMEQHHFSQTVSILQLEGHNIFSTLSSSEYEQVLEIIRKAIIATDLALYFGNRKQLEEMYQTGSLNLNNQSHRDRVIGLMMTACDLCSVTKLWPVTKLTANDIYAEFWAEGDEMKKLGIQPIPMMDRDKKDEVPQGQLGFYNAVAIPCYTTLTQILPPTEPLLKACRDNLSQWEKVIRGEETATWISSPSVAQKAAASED

Going from `Cc1nc(N2CC(c3nc4ccccc4n3C)C2)cc(-n2cc(C(F)(F)F)cn2)n1` [Example 16, 1-methyl-2-(1-(2-methyl-6-(4-(trifluoromethyl)-1H-pyrazol-1-yl)pyrimidin-4-yl)azetidin-3-yl)-1H-benzo[d]imidazole] to `Cc1cnn(-c2cc(N3CC(c4nc5ccccc5n4C)C3)nc(C)n2)c1` [Example 2, 1-methyl-2-(1-(2-methyl-6-(4-methyl-1H-pyrazol-1-yl)pyrimidin-4-yl)azetidin-3-yl)-1H-benzo[d]imidazole], the pKi rises from 8.57 to 9.21 (0.64 log units). The second binds more tightly here.

Going from `CCOC(=O)Cc1nc(N2CC(c3nc4ccccc4n3C)C2)cc(-n2nc(C)nc2C)n1` [Example 26, ethyl 2-(4-(3,5-dimethyl-1H-1,2,4-triazol-1-yl)-6-(3-(1-methyl-1H-benzo[d]imidazol-2-yl)azetidin-1-yl)pyrimidin-2-yl)acetate] to `CSc1nc(N2CC(c3nc4ccccc4n3C)C2)cc(-n2nc(C)nc2C)n1` [Example 23, 2-(1-(6-(3,5-dimethyl-1H-1,2,4-triazol-1-yl)-2-(methylthio)pyrimidin-4-yl)azetidin-3-yl)-1-methyl-1H-benzo[d]imidazole], the pKi rises from 8.51 to 9.70 (1.19 log units). The second binds more tightly here.

Going from `Cc1nc(N2CC(c3nc4ccccc4n3C)C2)cc(-n2nc(C)nc2Cc2ccc(F)cc2)n1` [Example 58, 2-(1-(6-(5-(4-fluorobenzyl)-3-methyl-1H-1,2,4-triazol-1-yl)-2-methylpyrimidin-4-yl)azetidin-3-yl)-1-methyl-1H-benzo[d]imidazole] to `Cc1nc(N2CC(c3nc4ccccc4n3C)C2)cc(-n2nc(C)nc2C2CC2)n1` [Example 36, 2-(1-(6-(5-cyclopropyl-3-methyl-1H-1,2,4-triazol-1-yl)-2-methylpyrimidin-4-yl)azetidin-3-yl)-1-methyl-1H-benzo[d]imidazole], the pKi falls from 9.92 to 8.35 (1.57 log units). The first binds more tightly here.

Going from `Cc1nc(N2CC(c3nc4cccc(C)c4[nH]3)C2)cc(-n2nc(C)nc2C)n1` [Example 110, 2-(1-(6-(3,5-dimethyl-1H-1,2,4-triazol-1-yl)-2-methylpyrimidin-4-yl)azetidin-3-yl)-7-methyl-1H-benzo[d]imidazole] to `Cc1nc(N2CC(c3nc4ccc(C(F)(F)F)cc4[nH]3)C2)cc(-n2nc(C)nc2C)n1` [Example 113, 2-(1-(6-(3,5-dimethyl-1H-1,2,4-triazol-1-yl)-2-methylpyrimidin-4-yl)azetidin-3-yl)-6-(trifluoromethyl)-1H-benzo[d]imidazole], the pKi falls from 7.77 to < 7.12.

`Cc1nc(-c2ccccn2)cc(N2CC(c3nc4ccccc4n3C)C2)n1` [Example 95, 1-methyl-2-(1-(2-methyl-6-(pyridin-2-yl)pyrimidin-4-yl)azetidin-3-yl)-1H-benzo[d]imidazole] and `COc1nc(-c2ccc(C)cn2)cc(N2CC(c3nc4ccccc4n3C)C2)n1` [Example 96, 2-(1-(2-methoxy-6-(5-methylpyridin-2-yl)pyrimidin-4-yl)azetidin-3-yl)-1-methyl-1H-benzo[d]imidazole] are within 0.2 log units of each other in pKi: 8.74 for the first, 8.89 for the second.

Compared with `Cc1cc(C)n(-c2cc(N3CC(c4nc5ccccc5n4C)C3)nc(C)n2)n1` [Example 7, 2-(1-(6-(3,5-dimethyl-1H-pyrazol-1-yl)-2-methylpyrimidin-4-yl)azetidin-3-yl)-1-methyl-1H-benzo[d]imidazole], `Cc1nc(N2CC(c3nc4c(C(F)(F)F)cccc4n3C)C2)cc(-n2nc(C)nc2C)n1` [Example 125, 2-(1-(6-(3,5-dimethyl-1H-1,2,4-triazol-1-yl)-2-methylpyrimidin-4-yl)azetidin-3-yl)-1-methyl-4-(trifluoromethyl)-1H-benzo[d]imidazole] is 0.64 log units lower in pKi: 8.07 for the first, 7.43 for the second. The first binds more tightly here.
